Molecular target: T1, recombinant human histamine N-methyltransferase (rhHNMT) (Homo sapiens, UniProt P50135)
T1 construct: gene HNMT
Assay: recombinant enzyme assay, LC-MS/MS of histamine and methylhistamine; Lineweaver-Burk analysis
Format: biochemical

T1 sequence (P50135 whole entry): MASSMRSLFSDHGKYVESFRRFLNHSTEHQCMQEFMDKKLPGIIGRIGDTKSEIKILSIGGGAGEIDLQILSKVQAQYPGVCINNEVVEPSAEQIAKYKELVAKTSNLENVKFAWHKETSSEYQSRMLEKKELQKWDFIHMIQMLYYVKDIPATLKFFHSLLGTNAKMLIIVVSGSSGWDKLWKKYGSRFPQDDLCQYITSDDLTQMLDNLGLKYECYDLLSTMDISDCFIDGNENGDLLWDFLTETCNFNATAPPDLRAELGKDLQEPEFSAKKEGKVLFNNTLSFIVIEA

C[N+](C)(C)[C@@H](Cc1c[nH]c(=S)[nH]1)C(=O)[O-] [ERGO, ergothioneine]
recombinant enzyme assay, LC-MS/MS of histamine and methylhistamine; Lineweaver-: Lineweaver–Burk analysis revealed that ERGO competitively inhibited rhHNMT against histamine (Fig. 6c)

— publication PMC11226696, “Ergothioneine promotes longevity and healthy aging in male mice” (GeroScience, 2024)
